Test results reported in US4876255A, “Substituted 1,4-dihydropyridines for control of circulation and thromboses” (Bayer Aktiengesellschaft, priority 1987, dated 1989).
Read-outs that look alike come from different tables or passages of the source.

Columns and labels:
[1] = tested on: isolated perfused guineapig hearts; test: Coronary and circulatory activity on isolated perfused guineapig hearts; settings: Cavia porcellus, 10^-6 g/ml, difference to starting pressure set as 100%
Description: The coronary and circulatory activities were discovered using isolated perfused guineapig hearts.
For this, the hearts of 250 to 350 g guineapigs are used. The animals are killed by a blow to the head, the thorax is opened, and a metal cannula is tied into the exposed aorta. The heart is removed from the thorax with the lungs and is connected to the perfusion apparatus through an aortic cannula, with continuous perfusion. The lungs are removed at the lung roots. A Krebs Henseleit solution (1) (118.5 mmol/l of NaCl, 4.75 mmol/l of KCl, 1.19 mmol/l of KH2 PO4, 1.19 mmol/l of MgSO4, 25 mmol/l of NaHCO3, 0.013 mmol/l of Na2 EDTA), which contains 1.2 mmol/l of CaCl2, is used as the perfusion medium. 10 mmol/l of glucose are added as an energy-liberating substrate. Before the perfusion the solution is filtered until free of particles. The solution is gassed with Carbogen (95% O2, 5% CO2) in order to maintain a pH value of 7.4. The hearts are perfused at a constant flow rate (10 ml/min) at 32° C. using a peristaltic pump.
In order to measure the cardiac function, a latex balloon filled with liquid and connected through a column of liquid to a pressure gauge is introduced into the left ventricle through the left auricle, and the isovolumetric contractions are recorded on a high-speed recorder (Opie, L., J. Physiol. 180 (1965) 529-541). The perfusion pressure is recorded using a pressure gauge which is connected to the perfusion system upstream of the heart. Under these conditions a decrease in the perfusion pressure indicates coronary dilation, and a rise or fall in the amplitude of contraction of the left ventricle indicates an increase or decrease in cardiac contractility. The compounds according to the invention are infused into the perfusion medium at suitable dilutions just upstream of the isolated heart.
The following values show, as an example, the effect of the compounds according to the invention on isolated perfused guineapig hearts, expressed as the percentage difference to the starting pressure, set as equivalent to 100%.

TXA2 synthesis = test: Inhibition of TXA2 synthesis (3H-arachidonic acid metabolism in washed human thrombocytes, TLC); format: cell-based; settings: 10 min, 2 min pre-incubation, 10 min with 3H-arachidonic acid, 37° C., read-out: Minimal effective concentration for inhibition (MEC) of TXA2 synthesis
Description: Arachidonic acid metabolism in human thrombocytes was investigated using tritium-labelled arachidonic acid. Thrombocytes metabolize arachidonic acid to TXA2 and HHT via the cyclooxygenase pathway and to 12-HETE via the lipoxygenase pathway, which can be separated by thin layer chromatography [cf Bailey, J.M. et al., Prostaglandins 13, 479-492, (1977)], Inhibitors of the individual enzymatic reactions alter the chromatographic distribution pattern in a characteristic manner.
Washed human thrombocytes from healthy donors who had taken no drug for 14 days were incubated for 2 minutes at 37° C. with the test substance and then incubated for a further 10 minutes at 37° C. with ^3 H-arachidonic acid. The suspension was acidified and extracted with ethyl acetate. The ethyl acetate was evaporated off under a nitrogen atmosphere and the residue was taken up in methanol/trichloromethane (1:1) and applied to TLC plastic sheets. Separation was performed using a trichloromethane/methanol/glacial acetic acid/water (80:8:1:0.8) mobile solvent mixture. The distribution of radioactivity was measured by means of a radioscanner (Table 1).

PGI2 synthesis = test: Prostacyclin stimulation in whole blood (collagen-induced, 6-keto-PGF1α radioimmunologically); format: cell-based; settings: read-out: Stimulation of PGI2 synthesis (MEC)
Procedure: The 1,4-dihydrophyridines to be used according to the invention additionally stimulate the synthesis of PGI2. PGI2 has vasodilating and thrombocyte aggregation inhibiting activity, in contrast with the vasoconstrictor and thrombocyte aggregation […] action of thromboxan.
In whole blood, collagen induces the formation of PGI2. The endoperoxides formed in the thrombocytes are probably converted into PGI2 by leucocytes. The stable end product of PGI2 conversion, 6-keto-PGF1 α, is determined radioimmunologically (Table 2).

[2] = decrease indicates coronary dilation, read-out: % alteration in perfusion pressure
[3] = read-out: % alteration in contractility

Q: Which percent change at 1 µg/mL [1, 2] does the source give for CCOC(=O)C1=C(C)NC(C)=C(C(=O)OCc2ccc(C3=NNC(=O)CC3)cc2)C1c1cccc([N+](=O)[O-])c1 (stereo not shown) [Example 7, Ethyl 4-(6-oxo-1,4,5,6-tetrahydropyridazin-3-yl)benzyl 1,4-dihydro-2,6-dimethyl-4-(3-nitrophenyl)-pyridine-3,5-dicarboxylate] here?
A: 0%

Q: And the inhibition at 1 µg/mL [1, 3]?
A: 60%

Q: For CC1=C(C(=O)OCCCc2cccnc2)C(CCc2cccnc2)C(C(=O)OCc2ccc(C3=NNC(=O)CC3)cc2)=C(C)N1 (stereo not shown) [Example 11], which inhibition at 1 µg/mL [1, 2] is on record?
A: 36%

Q: What about the inhibition at 1 µg/mL [1, 3] of the same compound?
A: 23%

Q: And the minimal effective concentration (TXA2 synthesis)?
A: 0.1 µg/mL

Q: What does the source list for COC(=O)C1=C(C)NC(C)=C(C(=O)OCc2ccc(C3=NNC(=O)CC3)cc2)C1c1ccccc1Cl (stereo not shown) [Example 13]?
A: percent change at 1 µg/mL [1, 2]: 0%; inhibition at 1 µg/mL [1, 3]: 78%

Q: COC(=O)C1=C(C)NC(C)=C(C(=O)OCc2ccc(C3=NNC(=O)CC3)cc2)C1CCc1cccnc1 (stereo not shown) [Example 16] was tested. Which minimal effective concentration (TXA2 synthesis) did it give?
A: 0.1 µg/mL

Q: CC(=O)C1=C(C)NC(C)=C(C(=O)OCc2ccc(C3=NNC(=O)CC3)cc2)C1CCc1cccnc1 (stereo not shown) [Example 18] was tested. Which minimal effective concentration (TXA2 synthesis) did it give?
A: 0.1 µg/mL

Q: For CC1=C(C#N)C(CCc2cccnc2)C(C(=O)OCc2ccc(C3=NNC(=O)CC3)cc2)=C(C)N1 (stereo not shown) [Example 19], which minimal effective concentration (TXA2 synthesis) is on record?
A: 0.1 µg/mL

Q: With COC(=O)C1=C(C)NC(C)=C(C(=O)OCCc2ccc(C3=NNC(=O)CC3)cc2)C1CCc1cccnc1 (stereo not shown) [Example 21] as the compound, how does the minimal effective concentration (PGI2 synthesis) read?
A: < 3 µg/mL

Q: Which results are given for CC1=C(C(=O)OCCCc2cccnc2)C(CCc2cccnc2)C(C(=O)OCCc2ccc(C3=NNC(=O)CC3)cc2)=C(C)N1 (stereo not shown) [Example 22]?
A: minimal effective concentration (PGI2 synthesis): < 1 µg/mL; minimal effective concentration (TXA2 synthesis): < 0.1 µg/mL
